{
  "source": "patent US20070213402A1",
  "about": "“Compounds which interact with the thyroid hormone receptor for the treatment of fibrotic disease” (priority 1998, published 2007)",
  "key": {"collagenase I promoter": {"tested_on": "collagenase I promoter", "assay": "Experiment 1: collagenase I promoter (-73/+63)-luciferase in CV1 cells transfected with GR1 (glucocorticoid receptor)", "type": "cell-based, African Green Monkey", "conditions": "for % control (GR1): Blank = 100", "from_the_text": "Two plasmid constructs were introduced by standard calcium phosphate precipitation of DNA followed by glycerol shock (Ausubel F M, Brent R, Kingston D D, Moore J G et al Current protocols in molecular biology 1994 Greene Publishing Associates/Wiley-Interscience, New York, N.Y.) using a transformed African Green Monkey kidney cell line (CV1) (Schneikert J, Peterziel H, Defossez P-A, Klocker H, de Launoit Y and Cato A C B Androgen receptor-Ets protein interaction is a novel mechanism for steroid hormone-mediated down-modulation of matrix metalloproteinase expression, Journal of Biological Chemistry. Vol 271(39) (pp 23907-23913), 1996).\nAccordingly, the following two plasmids were included into CV1 cells described above — • (a) Either of GR1 or pSG5ARF containing glucocorticoid or androgen receptor (AR) respectively, both at 2 ug per 5×10^5 cells, driven by the Rous sarcoma virus promoter, and • (b) a plasmid containing the −73/+63 portion of the collagenase I promoter linked to luciferase gene at 8 ug per 5×10^5 cells.\nCPII was compound II above, clobuzarit."}, "[1]": {"tested_on": "collagenase (MMP-1) promoter", "assay": "Experiment 4.2: collagenase (MMP-1) promoter-luciferase in MCF-7 cells with antisense construct for the thyroid receptor", "type": "cell-based, human", "conditions": "MCF-7 + thyroid receptor antisense; for % Control: Blank = 100", "protocol": "These experiments were intended to identify the receptor through which compounds I might be acting to block collagenase promoter activity.\nTransfection procedure hereinbefore described with CV1 cells was repeated using MCF-7 mammary breast cancer cells derived from pleural effusion from a breast cancer patient. Additionally, each experiment included transfection of a plasmid (at 8 ug per 5×10^5 cells) containing the −517/+63 section of the collagenase (MMP-1) promoter linked to the luciferase gene. TPA was used as above to stimulate activity of the collagenase promoter resulting in luciferase production. Compound II or 3,3,5-triiodo-L-thyronine (T3) was included (both at 10^−8M), the latter being a known ligand for the thyroid hormone receptor.\nExperiment 4.2. The procedure of Experiment 4.1 was repeated except that a second plasmid, containing 662 bp antisense construct for the thyroid receptor (at 8 ug per 5×10^5 cells) was additionally transfected."}, "[2]": {"conditions": "substance added with TPA 75 ng/ml, Dex 10^-7M"}, "[3]": {"conditions": "substance 10^-8M added with TPA"}},
  "data": [
    {"compound": "CC(C)(OCc1ccc(-c2ccc(Cl)cc2)cc1)C(=O)O", "note": "[Compound II, 1-[4-(4-chlorophenyl)benzyloxy]-1-methylpropionic acid]", "values": [
      {"measurement": "% control (GR1)", "setting": "collagenase I promoter; substance added alone", "result": 48, "unit": "%"},
      {"measurement": "Raw counts (GR1)", "setting": "collagenase I promoter; substance added alone, TPA 75 ng/ml", "result": 6151, "unit": "counts"},
      {"measurement": "Raw counts (GR1)", "setting": "collagenase I promoter; [2]", "result": 39968, "unit": "counts"},
      {"measurement": "% control (GR1)", "setting": "collagenase I promoter; [2]", "result": 311, "unit": "%"},
      {"measurement": "collagenase I activation, in words (GR1)", "setting": "collagenase I promoter; TPA-stimulated, glucocorticoid receptor", "result": "able to down regulate collagenase I activation"},
      {"measurement": "luciferase production when thyroid hormone receptor synthesis is inhibited, in words", "setting": "[1]", "result": "substantially prevented"},
      {"measurement": "Raw Counts", "setting": "[1]; [3]", "result": 8716, "unit": "counts"},
      {"measurement": "% Control", "setting": "[1]; [3]", "result": 597.8, "unit": "%"},
      {"measurement": "% Control", "setting": "[1]; substance added alone", "result": 163.2, "unit": "%"},
      {"measurement": "Raw Counts", "setting": "[1]; substance added alone, CPII 10^-8M", "result": 2379, "unit": "counts"}
    ]}
  ]
}
